The source of these data is patent US20240018140A1, “MODIFIED IMIDAZOPYRIDINES AS GLUCOSYLCERAMIDE SYNTHASE INHIBITORS” (Merck Sharp & Dohme LLC, priority 2020, published 2024).

For the assay, the target named is glucosylceramide synthase (GCS) (Homo sapiens (Human), UniProt Q16739). Nature of the assay: UDP-Glo glucosylceramide synthase biochemical assay. As to conditions: endogenous GCS in Golgi preparations from human A375 malignant melanoma skin cells; C6 ceramide and UDP-glucose substrates; 20 h incubation; UDP detected by luminescence. In a few lines: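 Endogenous GCS in Golgi preparations from A375 melanoma cells (1.5 μg total protein) preincubated 30 min at room temperature with compound. UDP-glucose and ceramide then added for 20 h at room temperature; UDP measured by luciferase luminescence. Normalized to DMSO (0%) and reference inhibitor (100%); EC50 and % Emax from 4PL fit.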
Chain of glucosylceramide synthase (GCS) (Q16739 whole entry): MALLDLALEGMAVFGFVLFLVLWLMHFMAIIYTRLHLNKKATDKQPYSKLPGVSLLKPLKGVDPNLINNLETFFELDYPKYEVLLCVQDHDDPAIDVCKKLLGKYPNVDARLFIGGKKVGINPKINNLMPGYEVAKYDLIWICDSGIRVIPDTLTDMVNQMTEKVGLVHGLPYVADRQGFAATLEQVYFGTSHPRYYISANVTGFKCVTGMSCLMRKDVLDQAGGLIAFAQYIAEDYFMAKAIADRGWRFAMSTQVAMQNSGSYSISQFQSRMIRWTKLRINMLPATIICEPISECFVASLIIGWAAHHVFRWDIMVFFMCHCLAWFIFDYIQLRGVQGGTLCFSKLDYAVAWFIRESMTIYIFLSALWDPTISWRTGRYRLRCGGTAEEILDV
Regarding `O=C(Nc1ccc2cccc(-c3ccccc3OCC(F)(F)F)c2n1)[C@H]1C[C@@H](O)C1` [Compound 81, cis-3-hydroxy-N-(8-(2-(2,2,2-trifluoroethoxy)phenyl)quinolin-2-yl)cyclobutane-1-carboxamide], the EC50 turned out to be 11 nM. In other words, the double-digit nanomolar range.

Compound `O=C(Nc1ccc2cccc(-c3ccccc3OCC(F)(F)F)c2n1)[C@H]1C[C@H](O)C1` [Compound 82, trans-3-hydroxy-N-(8-(2-(2,2,2-trifluoroethoxy)phenyl)quinolin-2-yl)cyclobutane-1-carboxamide] returned an EC50 of 3 nM.

On to `O=C(Nc1ccc2c(F)ccc(-c3ccccc3OCC(F)(F)F)c2n1)[C@H]1C[C@H](O)C1` [Compound 83, trans-N-(5-fluoro-8-(2-(2,2,2-trifluoroethoxy)phenyl)quinolin-2-yl)-3-hydroxycyclobutane-1-carboxamide], for which the EC50 stood at 6.9 nM. Compared with the last compound, the EC50 is about 2.3-fold higher.

`O=C(N[C@H]1C[C@@H](O)C1)c1cc2c(-c3ccccc3OCC(F)(F)F)cccc2cn1` [Compound 84]: the 50% effective concentration (EC50) worked out at 16 nM.
